Assay results: US10759795B2, “Aza-A-ring indenoisoquinoline topoisomerase I poisons” (Purdue Research Foundation, priority 2016, dated 2020)
Several values for one entry are separate records, joined by “and”; a condition that tells them apart may be missing. Equal entries are not always repeated. Structures can show the parent of a compound that is named as a salt.

Assays:
recombinant TDP1 = recombinant TDP1 (Homo sapiens, UniProt Q9NUW8); experiment: Recombinant TDP1 assay; format: biochemical; conditions: recombinant TDP1, gel-based; read-out: TDP1: IC50 values for the inhibition of TDP1
recombinant TDP1, sequence (Q9NUW8 whole entry, species assumed): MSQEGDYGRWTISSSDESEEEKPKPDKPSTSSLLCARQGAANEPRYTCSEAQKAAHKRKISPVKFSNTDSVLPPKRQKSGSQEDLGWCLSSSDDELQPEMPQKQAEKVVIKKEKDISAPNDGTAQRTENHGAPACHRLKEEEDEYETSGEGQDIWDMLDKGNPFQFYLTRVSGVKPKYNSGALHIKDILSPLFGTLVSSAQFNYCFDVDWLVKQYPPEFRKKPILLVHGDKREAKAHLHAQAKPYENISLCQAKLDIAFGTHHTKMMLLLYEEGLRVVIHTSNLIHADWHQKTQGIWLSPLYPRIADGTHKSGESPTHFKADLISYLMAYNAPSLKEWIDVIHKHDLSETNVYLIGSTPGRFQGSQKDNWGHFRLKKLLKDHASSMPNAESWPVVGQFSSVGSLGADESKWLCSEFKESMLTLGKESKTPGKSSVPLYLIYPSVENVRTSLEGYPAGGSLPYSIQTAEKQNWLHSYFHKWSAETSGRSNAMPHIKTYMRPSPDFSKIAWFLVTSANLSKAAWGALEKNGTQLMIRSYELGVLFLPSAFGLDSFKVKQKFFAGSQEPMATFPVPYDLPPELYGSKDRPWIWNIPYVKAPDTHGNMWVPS
Procedure: A 5′-[^32P]-labeled single-stranded DNA oligonucleotide containing a 3′-phosphotyrosine (N14Y) was incubated at 1 nM with 10 pM recombinant TDP1 in the absence or presence of inhibitor for 15 min at room temperature in the LMP1 assay buffer containing 50 mM Tris HCl, pH 7.5, 80 mM KCl, 2 mM EDTA, 1 mM DTT, 40 μg/mL BSA, and 0.01% Tween-20^18. […] Gels were dried and exposed to a PhosphorImager screen (GE Healthcare). Gel images were scanned using a Typhoon 8600 (GE Healthcare), and densitometry analyses were performed using ImageQuant software (GE Healthcare).
TDP1 is involved in the repair of DNA damage that results from the action of Top1 poisons, which induce the formation of DNA-protein adducts that include a 3′-phosphotyrosyl linkage. The TDP1 inhibition assay assesses a test agent's ability to inhibit the enzyme-induced cleavage of a 5′-^32P, 3′-phosphotyrosyl-DNA oligonucleotide, called N14Y. Cleavage of the phosphodiester bond between the 3′-phosphate and tyrosine releases […] from the DNA oligonucleotide. The enzyme-processed DNA oligonucleotide lacking its 3′-phosphotyrosyl moiety is designated N14P. A schematic representation of the assay and a representative gel are shown in FIG. 2, and the TDP1 screening results are listed in Table 1.

recombinant human TDP2 = target: T1, recombinant human TDP2 (Homo sapiens, UniProt O95551); experiment: Recombinant TDP2 assay; format: biochemical; conditions: recombinant human TDP2, gel-based; read-out: TDP2: IC50 values for the inhibition of TDP2
T1 sequence (O95551 1-362): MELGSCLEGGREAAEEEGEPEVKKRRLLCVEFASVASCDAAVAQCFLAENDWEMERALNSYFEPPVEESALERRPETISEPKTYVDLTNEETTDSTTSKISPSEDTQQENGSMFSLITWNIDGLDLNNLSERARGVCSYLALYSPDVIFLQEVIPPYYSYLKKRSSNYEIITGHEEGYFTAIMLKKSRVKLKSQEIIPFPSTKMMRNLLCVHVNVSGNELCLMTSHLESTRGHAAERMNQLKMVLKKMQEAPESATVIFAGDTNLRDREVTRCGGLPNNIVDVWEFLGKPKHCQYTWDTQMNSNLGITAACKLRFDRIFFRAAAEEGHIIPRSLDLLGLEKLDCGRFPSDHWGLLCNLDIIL
Text: Reactions were terminated and treated similarly to recombinant TDP1 reactions.
TDP2, as opposed to TDP1, cleaves the phosphotyrosyl linkage in 5′-phosphotyrosyl-DNA oligonucleotides.

Top1 = target: T2, Top1 (Homo sapiens, UniProt P11387); experiment: Top1-mediated DNA cleavage assay; format: biochemical; conditions: score based on the activity of 1 μM 1 (camptothecin); tested at 0.1, 1, 10, 100 μM
T2 sequence (P11387 1-765): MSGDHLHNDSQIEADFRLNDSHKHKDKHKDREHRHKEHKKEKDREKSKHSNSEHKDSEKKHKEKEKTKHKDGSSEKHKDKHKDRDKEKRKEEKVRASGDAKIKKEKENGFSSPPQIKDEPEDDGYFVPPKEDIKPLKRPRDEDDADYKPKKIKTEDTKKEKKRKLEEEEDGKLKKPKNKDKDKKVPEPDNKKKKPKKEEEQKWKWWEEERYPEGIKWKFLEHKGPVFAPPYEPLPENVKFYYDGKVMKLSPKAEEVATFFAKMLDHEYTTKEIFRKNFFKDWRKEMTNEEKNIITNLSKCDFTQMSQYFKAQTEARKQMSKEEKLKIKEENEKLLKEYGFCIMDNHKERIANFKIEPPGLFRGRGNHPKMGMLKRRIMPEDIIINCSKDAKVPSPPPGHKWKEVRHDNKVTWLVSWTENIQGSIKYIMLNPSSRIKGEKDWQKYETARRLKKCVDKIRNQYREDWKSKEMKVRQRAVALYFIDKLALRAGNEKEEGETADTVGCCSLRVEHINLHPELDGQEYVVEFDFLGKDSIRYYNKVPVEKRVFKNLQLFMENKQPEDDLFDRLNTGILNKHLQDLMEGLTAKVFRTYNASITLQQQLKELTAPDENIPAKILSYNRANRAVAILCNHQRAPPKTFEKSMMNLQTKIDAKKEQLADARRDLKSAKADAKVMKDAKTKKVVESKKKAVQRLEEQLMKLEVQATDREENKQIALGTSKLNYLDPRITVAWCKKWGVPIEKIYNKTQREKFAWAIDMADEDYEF
Procedure: Approximately 2 nM radiolabeled DNA substrate was incubated with recombinant Top in 20 μL of reaction buffer [10 mM Tris-HCl (pH 7.5), 50 mM KCl, 5 mM MgCl2, 0.1 mM EDTA, and 15 μg/mL BSA] at 25° C. for 20 min in the presence of various concentrations of test compounds. […] Aliquots of each reaction mixture were subjected to 20% denaturing PAGE.
The Top1-mediated DNA cleavage assay was used to measure Top1 inhibitory activity. This assay measures the ability of the compound to stabilize DNA cleavage in a 3′-[^32P]-labeled DNA substrate via Top1 poisoning.

[1] = system: 60 human cancer cell lines; experiment: NCI-60 single-dose cytotoxicity assay; format: cell-based; conditions: mean-graph midpoint of percent growth of 60 human cancer cell lines, 10 μM drug, 48 h, relative to no-drug control and time zero
Procedure: The new indenoisoquinolines were evaluated for cancer cell growth inhibitory activities. The National Cancer Institute's NCI-60 cytotoxicity assay measures the ability of test agents to inhibit the growth of approximately 60 different cancer cell lines. In the initial single-dose assay, cells are treated with a 10 μM dose of test agent. The growth of treated cells versus untreated cells is then compared. If a test agent induces a sufficiently low mean growth percent, it is promoted to five-dose testing to determine a mean graph midpoint (MGM) GI50 value. In five-dose testing, cells are treated with test agent concentrations ranging from 10^−8 to 10^−4 M. The concentration required to achieve 50% growth inhibition in a particular cell line is calculated. In situations in which this value is greater than 100 μM or less than 0.01 μM, it is recorded as 100 μM and 0.01 μM, respectively. The values for each of the tested cell lines are averaged to obtain a mean graph midpoint (MGM) GI50 value. MGM GI50 values are often, but not always, determined from two separate rounds (Table 1).

| Compound | IC50 (recombinant TDP1) | IC50 (recombinant human TDP2) [µM] | Top 1: compound-induced DNA cleavage due to Top1 poisoning (Top1) | Mean Growth % [1] [%] | melting point |
| --- | --- | --- | --- | --- | --- |
| NCCCn1c2c(c3ccncc3c1=O)C(=O)c1ccccc1-2 [Compound 59, 6-(3-Aminopropyl)-3-aza-5,6-dihydro-5,11-dioxo-indeno[1,2-c]isoquinoline Dihydrochloride] | 30 µM and 48 µM | ~111 | – | – | – |
| O=C1c2ccccc2-c2c1c1cccnc1c(=O)n2CCCn1ccnc1 [Compound 43, 4-Aza-5,6-dihydro-6-(3-(1H-imidazol-1-yl)propyl)-5,11-dioxo-indeno[1,2-c]isoquinoline] | > 111 µM | > 111 | +++ (+++, between 75 and 95% activity) | 49.6 | 251 to 252 °C |
| O=C1c2ccccc2-c2c1c1ccncc1c(=O)n2CCCn1ccnc1 [Compound 42, 3-Aza-5,6-dihydro-6-(3-(1H-imidazol-1-yl)propyl)-5,11-dioxo-11H-indeno[1,2-c]isoquinoline] | > 111 µM | > 111 | + (+, between 20 and 50%activity) | 47.5 | 251 to 252 °C |
| O=C1c2ccccc2-c2c1c1cnccc1c(=O)n2C[C@H](O)CO [Compound 49, (2′S)-2-Aza-5,6-dihydro-6-(2′,3′-dihydroxypropyl)-5,11-dioxo-indeno[1,2-c]isoquinoline] | > 111 µM | > 111 | + (+, between 20 and 50%activity) | 85.5 | 229 to 232 °C |
| NCCCn1c2c(c3cnccc3c1=O)C(=O)c1ccccc1-2 [Compound 58, 6-(3-Aminopropyl)-2-aza-5,6-dihydro-5,11-dioxo-indeno[1,2-c]isoquinoline Dihydrochloride] | 19 µM and 30 µM | ~111 | ++ (++, between 50 and 75% activity) | – | – |
| NCCCn1c2c(c3cccnc3c1=O)C(=O)c1ccccc1-2 (as salt: hydrochloride) [Compound 60, 6-(3-Aminopropyl)-4-aza-5,6-dihydro-5,11-dioxo-indeno[1,2-c]isoquinoline Dihydrochloride] | – | – | – | – | 284 to 286 °C |
| O=C1c2ccccc2-c2c1c1ncccc1c(=O)n2C[C@H](O)CO [Compound 48, (2′S)-1-Aza-5,6-dihydro-6-(2′,3′-dihydroxypropyl)-5,11-dioxo-indeno[1,2-c]isoquinoline] | > 111 µM | > 111 | + (+, between 20 and 50%activity) | 100 | 245 to 250 °C (dec.) |
| O=C1c2ccccc2-c2c1c1cccnc1c(=O)n2C[C@H](O)CO [Compound 51, (2′S)-4-Aza-5,6-dihydro-6-(2′,3′-dihydroxypropyl)-5,11-dioxo-indeno[1,2-c]isoquinoline] | > 111 µM | > 111 | + (+, between 20 and 50%activity) | 61.7 | 247 to 255 °C |
| O=C1c2ccccc2-c2c1c1ccncc1c(=O)n2C[C@H](O)CO [Compound 50, (2′S)-3-Aza-5,6-dihydro-6-(2′,3′-dihydroxypropyl)-5,11-dioxo-indeno[1,2-c]isoquinoline] | – | – | ++ (++, between 50 and 75% activity) | – | 237 to 238 °C |
| O=C1c2ccccc2-c2c1c1cccnc1c(=O)n2CCCN1CCOCC1 [Compound 39, 4-Aza-5,6-dihydro-6-(3-morpholinopropyl)-5,11-dioxo-indeno[1,2-c]isoquinoline] | > 111 µM | > 111 | +++ (+++, between 75 and 95% activity) | 42.9 | 177 to 178 °C |
| NCCCn1c2c(c3ncccc3c1=O)C(=O)c1ccccc1-2 [Compound 57, 6-(3-Aminopropyl)-1-aza-5,6-dihydro-5,11-dioxo-indeno[1,2-c]isoquinoline Dihydrochloride] | 43 µM and 63 µM | > 111 | ++ (++, between 50 and 75% activity) | – | – |
| O=C1c2ccccc2-c2c1c1ccncc1c(=O)n2CCCN1CCOCC1 [Compound 38, 3-Aza-5,6-dihydro-6-(3-morpholinopropyl)-5,11-dioxo-11H-indeno[1,2-c]isoquinoline] | > 111 µM | > 111 | ++ (++, between 50 and 75% activity) | – | 210 to 211 °C |
| O=C1c2ccccc2-c2c1c1cnccc1c(=O)n2CCCN1CCOCC1 [Compound 37, 2-Aza-5,6-dihydro-6-(3-morpholinopropyl)-5,11-dioxo-indeno[1,2-c]isoquinoline] | > 111 µM | > 111 | +++ (+++, between 75 and 95% activity) | – | 218 to 219 °C |
| NCCCn1c2c(c3ccncc3c1=O)C(=O)c1ccccc1-2 (as salt: hydrochloride) [Compound 59, 6-(3-Aminopropyl)-3-aza-5,6-dihydro-5,11-dioxo-indeno[1,2-c]isoquinoline Dihydrochloride] | – | – | – | – | 253 to 254 °C |
| NCCCn1c2c(c3cnccc3c1=O)C(=O)c1ccccc1-2 (as salt: hydrochloride) [Compound 58, 6-(3-Aminopropyl)-2-aza-5,6-dihydro-5,11-dioxo-indeno[1,2-c]isoquinoline Dihydrochloride] | – | – | – | – | 272 to 274 °C |
| NCCCn1c2c(c3ncccc3c1=O)C(=O)c1ccccc1-2 (as salt: hydrochloride) [Compound 57, 6-(3-Aminopropyl)-1-aza-5,6-dihydro-5,11-dioxo-indeno[1,2-c]isoquinoline Dihydrochloride] | – | – | – | – | 226 to 228 °C |
